Reference: article PMC5426667, “Action of tyrosinase on alpha and beta-arbutin: A kinetic study” (PLoS ONE, 2017)

Key:
[1] = deprotonated form is the nucleophile; no reference given; cited from earlier work
Mushroom tyrosinase [2] = biological target: T1, Mushroom tyrosinase (Agaricus bisporus, UniProt C7FF04); test: Apparent inhibition of the monophenolase activity of tyrosinase (L-tyrosine as substrate, dopachrome at 475 nm); assay type: biochemical; conditions: Lineweaver-Burk, 3 mM arbutin
Protocol: (§1) Mushroom tyrosinase (3130 U/mg) was obtained from Sigma (Madrid, Spain) and purified as previously described. Bradford’s method was used to determine the protein content using bovine serum albumin as standard.
(§2) Spectrophotometric assays were carried out with a PerkinElmer Lambda-35 spectrophotometer, online interfaced with a compatible PC 486DX microcomputer controlled by UV-Winlab software, where the kinetic data were recorded, stored, and analyzed.
The diphenolase activity of tyrosinase on L-dopa and the monophenolase activity on L-tyrosine were measured at 475 nm, the maximum absorption wavelength of dopachrome. To measure the activity of tyrosinase on L-tyrosine, the quantity of o-diphenol necessary to reach the steady state at time t = 0 was added. In this way, the characteristic lag period of the monophenolase activity, which complicates the measurement of the V0, was eliminated. This quantity is given by the equation R = [D]ss / [M]ss, where [D]ss and [M]ss are the concentrations of o-diphenol and monophenol respectively in the steady state with [M]ss ≈ [M]0. All the assays were carried out with R = 0.042. […]
The degrees of inhibition (i) were calculated using tyrosinase, L-dopa, L-tyrosine and the following formula: i (%) = [(V0-Vi)/V0] x 100, where V0 is the initial rate of the control and Vi the initial rate in the presence of the target molecule. […]

Mushroom tyrosinase [3] = biological target: T1, Mushroom tyrosinase; test: Kinetic characterization of arbutins as substrates of tyrosinase in the presence of MBTH; assay type: biochemical; conditions: [E]0 = 100 nM, [MBTH]0 = 0.2 mM, DMF 2%, pH 7.0, 25°C; for Km: read-out: KM (Michaelis constant) as substrate of tyrosinase
Protocol: This adduct is oxidized by another molecule of o-quinone, leading to the accumulation of o-diphenol in the medium, so, the system reach the steady state. This assay method is highly sensitive, reliable, and precise. […] The sequence of reactions is described in S1B Fig. All of the assays were carried out at 25°C, using 30 mM phosphate buffer at pH 7.0. Three repetitions of each experiment were made. Initial rate values (V0) were calculated at different substrate concentrations. The assays were carried out in saturating conditions of O2 [47-49]. The data for V0 vs. [arbutin]0 were represented and fitted to the Michaelis-Menten equation using the Sigma Plot 9.0 program for Windows, providing the maximum rate (Vmax) and the Michaelis constant (KM). […] These compounds were solubilised by adding 2% (v/v) DMF to the reaction medium. […] KM and kcat values were obtained fitting by non-linear regression (Table 2) the initial rate values vs. the concentration of substrate to the Eq 1 (Fig 7 and 7 Inset).

Mushroom tyrosinase [4] = biological target: T1, Mushroom tyrosinase; test: Apparent inhibition of the diphenolase activity of tyrosinase (L-dopa as substrate, dopachrome at 475 nm); assay type: biochemical; set-up: purchased Sigma (Madrid, Spain); conditions: for type of inhibition of the diphenolase activity: Lineweaver-Burk, 3 mM arbutin; for degree of inhibition of the diphenolase activity (maximum reached): [E]0 = 30 nM, [L-dopa]0 = 0.5 mM, arbutin up to 30 mM
Protocol: as §1, §2
The diphenolase activity of tyrosinase on L-dopa and the monophenolase activity on L-tyrosine were measured at 475 nm, the maximum absorption wavelength of dopachrome. To measure the activity of tyrosinase on L-tyrosine, the quantity of o-diphenol necessary to reach the steady state at time t = 0 was added. In this way, the characteristic lag period of the monophenolase activity, which complicates the measurement of the V0, was eliminated. This quantity is given by the equation R = [D]ss / [M]ss, where [D]ss and [M]ss are the concentrations of o-diphenol and monophenol respectively in the steady state with [M]ss ≈ [M]0. All the assays were carried out with R = 0.042.
All of the assays were carried out at 25°C, using 30 mM phosphate buffer at pH 7.0. Three repetitions of each experiment were made.
The degrees of inhibition (i) were calculated using tyrosinase, L-dopa, L-tyrosine and the following formula: i (%) = [(V0-Vi)/V0] x 100, where V0 is the initial rate of the control and Vi the initial rate in the presence of the target molecule. The initial rates were obtained by linear regression fitting of the initial portions of each experimental recording.

T1 sequence (C7FF04 1-392): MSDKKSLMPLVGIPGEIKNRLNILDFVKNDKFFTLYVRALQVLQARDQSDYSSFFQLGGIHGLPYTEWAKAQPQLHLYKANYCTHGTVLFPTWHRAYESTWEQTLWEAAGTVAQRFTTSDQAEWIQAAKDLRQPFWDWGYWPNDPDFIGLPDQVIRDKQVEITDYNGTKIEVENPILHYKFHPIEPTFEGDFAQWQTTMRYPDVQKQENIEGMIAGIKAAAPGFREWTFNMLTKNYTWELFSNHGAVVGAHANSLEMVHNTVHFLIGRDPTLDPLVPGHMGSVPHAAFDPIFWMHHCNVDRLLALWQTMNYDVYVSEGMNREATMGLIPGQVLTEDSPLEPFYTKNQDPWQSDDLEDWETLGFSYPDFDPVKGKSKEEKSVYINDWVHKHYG

| type of inhibition of the monophenolase activity (Mushroom tyrosinase [2]) | kcat (catalytic constant) as substrate of tyrosinase (Mushroom tyrosinase [3]) [s⁻¹] | Km (Mushroom tyrosinase [3]) [mM] | type of inhibition of the diphenolase activity (Mushroom tyrosinase [4]) | degree of inhibition of the diphenolase activity (maximum reached) (Mushroom tyrosinase [4]) [%] | SMILES | pKa [1] |
| --- | --- | --- | --- | --- | --- | --- |
|  |  |  |  |  | Cl.Cn1c(=NN)sc2ccccc21.O [MBTH, 3-methyl-2-benzothiazolinone hydrazone hydrochloride hydrate] | 5.8 ± 0.4 |
| apparent competitive inhibition | 3.77 ± 0.29 | 3 ± 0.19 | apparent competitive inhibition | < 100 | OC[C@H]1O[C@@H](Oc2ccc(O)cc2)[C@H](O)[C@@H](O)[C@@H]1O [β-Arbutin, (2R,3S,4S,5R,6S)-2-(hydroxymethyl)-6-(4-hydroxyphenoxy)oxane-3,4,5-triol] |  |
| apparent competitive inhibition | 4.43 ± 0.33 | 6.5 ± 0.58 | apparent competitive inhibition | < 100 | OC[C@H]1O[C@H](Oc2ccc(O)cc2)[C@H](O)[C@@H](O)[C@@H]1O [α-Arbutin, (2R,3S,4S,5R,6R)-2-(hydroxymethyl)-6-(4-hydroxyphenoxy)oxane-3,4,5-triol] |  |
